PubChem BioAssay (NCI)
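96-well plates; 48 h exposure; 5 concentrations. Endpoints by linear interpolation between flanking doses. Not reached: highest tested concentration assigned. GI50 marks 50% less growth. TGI is the concentration that stops growth completely.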

Key:
Assay in all cases: NCI tumour cell line growth inhibition, 48 h
SR leukemia = test system: SR leukemia
OVCAR-3 ovarian = test system: OVCAR-3 ovarian
M14 melanoma = test system: M14 melanoma
EKVX NSCLC = test system: EKVX NSCLC
SNB-75 CNS = test system: SNB-75 CNS
UACC-257 melanoma = test system: UACC-257 melanoma
HCT-116 colon = test system: HCT-116 colon
HOP-92 NSCLC = test system: HOP-92 NSCLC
NCI-H460 lung = test system: NCI-H460 lung
U251 CNS = test system: U251 CNS
NCI-H23 lung = test system: NCI-H23 lung
T-47D breast = test system: T-47D breast
HCC-2998 colon = test system: HCC-2998 colon
SF-268 CNS = test system: SF-268 CNS
NCI-H226 lung = test system: NCI-H226 lung
K-562 leukemia = test system: K-562 leukemia
HL-60(TB) leukemia = test system: HL-60(TB) leukemia
BT-549 breast = test system: BT-549 breast
SK-MEL-2 melanoma = test system: SK-MEL-2 melanoma
TK-10 renal = test system: TK-10 renal
HOP-62 NSCLC = test system: HOP-62 NSCLC
UO-31 renal = test system: UO-31 renal
SK-OV-3 ovarian = test system: SK-OV-3 ovarian
MOLT-4 leukemia = test system: MOLT-4 leukemia
MDA-MB-435 = test system: MDA-MB-435
HT29 colon = test system: HT29 colon
A549 NSCLC = test system: A549 NSCLC
LOX IMVI melanoma = test system: LOX IMVI melanoma
PC-3 prostate = test system: PC-3 prostate
DU-145 prostate = test system: DU-145 prostate
CCRF-CEM leukemia = test system: CCRF-CEM leukemia
UACC-62 melanoma = test system: UACC-62 melanoma
SK-MEL-28 melanoma = test system: SK-MEL-28 melanoma
786-0 renal = test system: 786-0 renal
MCF7 breast = test system: MCF7 breast
SNB-19 CNS = test system: SNB-19 CNS
SN12C renal = test system: SN12C renal
CAKI-1 renal = test system: CAKI-1 renal
SW-620 colon = test system: SW-620 colon
IGROV1 ovarian = test system: IGROV1 ovarian
NCI-H522 lung = test system: NCI-H522 lung
KM12 colon = test system: KM12 colon
A498 renal = test system: A498 renal
RXF 393 renal = test system: RXF 393 renal
RPMI-8226 leukemia = test system: RPMI-8226 leukemia
OVCAR-4 ovarian = test system: OVCAR-4 ovarian
SF-295 CNS = test system: SF-295 CNS
OVCAR-8 ovarian = test system: OVCAR-8 ovarian
MALME-3M melanoma = test system: MALME-3M melanoma
COLO 205 colon = test system: COLO 205 colon
SK-MEL-5 melanoma = test system: SK-MEL-5 melanoma
NCI/ADR-RES ovarian = test system: NCI/ADR-RES ovarian
HS 578T breast = test system: HS 578T breast
MDA-MB-231 breast = test system: MDA-MB-231 breast

SMILES: CN(C)c1ccc2nc3ccc(=[N+](C)C)c([N+](=O)[O-])c-3sc2c1
- GI50 (SR leukemia): 0.797 µM
- TGI (SR leukemia): 17.5 µM
- GI50 (OVCAR-3 ovarian): 0.271 µM
- TGI (OVCAR-3 ovarian): 0.926 µM
- GI50 (M14 melanoma): 1.32 µM
- TGI (M14 melanoma): 10.8 µM
- GI50 (EKVX NSCLC): 1.67 µM
- TGI (EKVX NSCLC): 16.2 µM
- GI50 (SNB-75 CNS): 2.93 µM
- TGI (SNB-75 CNS): 13.3 µM
- GI50 (UACC-257 melanoma): 2.85 µM
- TGI (UACC-257 melanoma): 8.59 µM
- GI50 (HCT-116 colon): 2.45 µM
- TGI (HCT-116 colon): 13.2 µM
- GI50 (HOP-92 NSCLC): 2.09 µM
- TGI (HOP-92 NSCLC): 11.3 µM
- GI50 (NCI-H460 lung): 2.59 µM
- TGI (NCI-H460 lung): 15.2 µM
- GI50 (U251 CNS): 1.21 µM
- TGI (U251 CNS): 11.1 µM
- GI50 (NCI-H23 lung): 1.87 µM
- TGI (NCI-H23 lung): 9.65 µM
- GI50 (T-47D breast): 2.16 µM
- TGI (T-47D breast): 7.47 µM
- GI50 (HCC-2998 colon): 5.18 µM
- TGI (HCC-2998 colon): 16.8 µM
- GI50 (SF-268 CNS): 2.1 µM
- TGI (SF-268 CNS): 13.2 µM
- GI50 (NCI-H226 lung): 7.97 µM
- TGI (NCI-H226 lung): 22.4 µM
- GI50 (K-562 leukemia): 1.94 µM
- TGI (K-562 leukemia): 19.4 µM
- GI50 (HL-60(TB) leukemia): 0.302 µM
- TGI (HL-60(TB) leukemia): 4.7 µM
- GI50 (BT-549 breast): 8.29 µM
- TGI (BT-549 breast): 21.7 µM
- GI50 (SK-MEL-2 melanoma): 4.54 µM
- TGI (SK-MEL-2 melanoma): 16.1 µM
- GI50 (TK-10 renal): 7.46 µM
- TGI (TK-10 renal): 23.5 µM
- GI50 (HOP-62 NSCLC): 8.6 µM
- TGI (HOP-62 NSCLC): 22.2 µM
- GI50 (UO-31 renal): 5.98 µM
- TGI (UO-31 renal): 23.4 µM
- GI50 (SK-OV-3 ovarian): 11.8 µM
- TGI (SK-OV-3 ovarian): 28.9 µM
- GI50 (MOLT-4 leukemia): 2.3 µM
- TGI (MOLT-4 leukemia): 10.6 µM
- GI50 (MDA-MB-435): 2.46 µM
- TGI (MDA-MB-435): 11.4 µM
- GI50 (HT29 colon): 6.04 µM
- TGI (HT29 colon): 25.1 µM
- GI50 (A549 NSCLC): 1.46 µM
- TGI (A549 NSCLC): 18.1 µM
- GI50 (LOX IMVI melanoma): 1.32 µM
- TGI (LOX IMVI melanoma): 7.85 µM
- GI50 (PC-3 prostate): 0.599 µM
- TGI (PC-3 prostate): 6.78 µM
- GI50 (DU-145 prostate): 4.75 µM
- TGI (DU-145 prostate): 18.3 µM
- GI50 (CCRF-CEM leukemia): 0.908 µM
- TGI (CCRF-CEM leukemia): 15.4 µM
- GI50 (UACC-62 melanoma): 1.1 µM
- TGI (UACC-62 melanoma): 3 µM
- GI50 (SK-MEL-28 melanoma): 10.3 µM
- TGI (SK-MEL-28 melanoma): 22 µM
- GI50 (786-0 renal): 6.2 µM
- TGI (786-0 renal): 21.4 µM
- GI50 (MCF7 breast): 1.79 µM
- TGI (MCF7 breast): 5.9 µM
- GI50 (SNB-19 CNS): 0.483 µM
- TGI (SNB-19 CNS): 17.4 µM
- GI50 (SN12C renal): 1.37 µM
- TGI (SN12C renal): 5.26 µM
- GI50 (CAKI-1 renal): 2.59 µM
- TGI (CAKI-1 renal): 13.1 µM
- GI50 (SW-620 colon): 2.57 µM
- TGI (SW-620 colon): 12.3 µM
- GI50 (IGROV1 ovarian): 2.56 µM
- GI50 (NCI-H522 lung): 1.81 µM
- TGI (NCI-H522 lung): 5.19 µM
- GI50 (KM12 colon): 2.08 µM
- TGI (KM12 colon): 16.4 µM
- GI50 (A498 renal): 7.06 µM
- TGI (A498 renal): 21.9 µM
- GI50 (RXF 393 renal): 4.41 µM
- TGI (RXF 393 renal): 18.1 µM
- GI50 (RPMI-8226 leukemia): 0.536 µM
- TGI (RPMI-8226 leukemia): 15.9 µM
- GI50 (OVCAR-4 ovarian): 0.906 µM
- TGI (OVCAR-4 ovarian): 3.04 µM
- GI50 (SF-295 CNS): 3.04 µM
- TGI (SF-295 CNS): 16.6 µM
- GI50 (OVCAR-8 ovarian): 1.87 µM
- TGI (OVCAR-8 ovarian): 10.4 µM
- GI50 (MALME-3M melanoma): 2.38 µM
- TGI (MALME-3M melanoma): 8.97 µM
- GI50 (COLO 205 colon): 1.7 µM
- TGI (COLO 205 colon): 9.83 µM
- GI50 (SK-MEL-5 melanoma): 1.44 µM
- TGI (SK-MEL-5 melanoma): 12.1 µM
- GI50 (NCI/ADR-RES ovarian): 2.33 µM
- TGI (NCI/ADR-RES ovarian): 8.13 µM
- GI50 (HS 578T breast): 3.33 µM
- TGI (HS 578T breast): 26.1 µM
- GI50 (MDA-MB-231 breast): 0.578 µM
- TGI (MDA-MB-231 breast): 4.46 µM
